target: T1, FAK enzyme (6 His tagged kinase domain, GenBank NP—722560) (Homo sapiens, UniProt Q05397); assay: In vitro enzyme assay (a): sandwich ELISA of FAK tyrosine kinase activity on polyGAT peptide, TMB colorimetric endpoint; format: biochemical; conditions: in vitro Enzyme Assay test (a); ATP at Km; geometric mean of n > 1 measurements, values marked * tested once
T1 construct: 6 His; made in house; host or cells: insect cell culture infected with baculovirus
Description: (a) In Vitro Enzyme Assay
A sandwich ELISA assay with a 3,3′,5,5′-tetramethyl benzidine (TMB) colorimetric endpoint was used in order to determine the level of effect of selected compounds on inhibition of FAK protein tyrosine kinase enzyme activity. A synthetic tyrosine containing peptide is coated onto a plastic surface, the level of phosphorylation of these tyrosine residues by the kinase enzyme in the presence of inhibitors is measured using an antibody that binds specifically to phosphorylated tyrosine residues. The amount of antibody bound to substrate is proportional to the level of enzyme catalysis.
Assay Protocol to Identify Inhibitors of Focal Adhesion Kinase (FAK).
A PlateMate Plus™ 384 automated liquid handling unit with a 100 μl disposable tip head was used to make all the non compound reagent additions and a Tecan 384PW plate washer with 384 head was used for all wash steps. Initially Matrix 384 well polystyrene plates (Cat #:4311) were coated with 40 μl/well of a 0.0375 mg/ml solution of synthetic poly peptide (polyGAT, Sigma Cat #:P3899) dissolved in phosphate buffered saline (PBS). Plates were stored overnight at 4° C. Immediately before use the coating solution was aspirated out and each well washed with 2×100 μl of PBS+0.05% Tween 20. To remove surplus phosphate, the wells were then washed with 2×100 μl 50 mM HEPES buffer pH 7.4. Plates were blotted dry before the addition of compounds. Compounds were tested over a 12 point dose range, a Labcyte Echo 550 was used to dispense compounds in nl volumes and back fill with DMSO. The final concentration of compound in the assay was dependent on the starting concentration of compound. For a 10 mM stock compound the final assay dose ranged from 100 μM down to […]. Control wells containing 120 nl DMSO (Max) or 120 nl of 10 mM staurosporine (LC Laboratories, Boston, USA Cat #: S-9300) (Min) were included in each plate. 10 ul of 5% dimethyl sulfoxide v/v (DMSO, Fisher Scientific) was added to each well immediately prior to addition of 10 μl of a co-factor solution containing 80 mM MgCl2 (Sigma Cat #: M1028); 80 mM MnCl2 (Sigma Cat #: M1787); ATP at a concentration calculated to enable the initial reaction velocity to progress at half the maximum velocity (Km for ATP) (Sigma Cat #:A7699). A final addition of 20 μl of enzyme solution containing 100 mM HEPES pH7.4; 0.2 mM sodium vanadate (Sigma Cat #:S6508); 0.2 g/l bovine serum albumin (BSA, Sigma Cat #: A7888); 0.2 mM dithioreitol (Sigma Cat #: 5545); 0.1% Triton X100 (Sigma Cat #:X100); FAK enzyme (20 μl/ml) was made to each well to start the assay running FAK enzyme was generated from an insect culture infected with baculo virus containing the DNA sequence encoding the 6 His tagged kinase domain (GenBank NP_722560).
Plates were left at room temperature for 25 minutes before 10 μl of 500 mM ethylenediaminetetraacetic acid (EDTA) was added to stop the assay and the wells were immediately washed 3×100 μl with PBS+0.05% Tween 20. A 4G10 antibody (Millipore Cat #: 16-105; 16-184) with a directly conjugated horse radish peroxidase (HRP) was used to detect the phosphorylation of the substrate by the FAK. 40 μl of PBS+0.05% Tween 20 containing 0.5% BSA and 0.1 μl/ml antibody was added to each well and left for 1 hour at room temperature to allow the antibody to bind. After this period the wells were again washed with 3×100 μl of PBS+0.05% Tween 20. TMB (Sigma Cat #: T2885) was used as a substrate for the HRP. Phosphate-citrate buffer was made up using capsules provided by Sigma (Cat #: P4922) following the manufacturers guidelines. TMB was dissolved at a concentration of 1 mg/ml in DMSO and let down to a final concentration of 0.05 mg/ml with the phosphor-citrate buffer. 40 μl of the TMB solution was added to each assay well and left for 30 minutes for the blue colour to develop. […]

T1 sequence (Q05397 422-680 limits assumed): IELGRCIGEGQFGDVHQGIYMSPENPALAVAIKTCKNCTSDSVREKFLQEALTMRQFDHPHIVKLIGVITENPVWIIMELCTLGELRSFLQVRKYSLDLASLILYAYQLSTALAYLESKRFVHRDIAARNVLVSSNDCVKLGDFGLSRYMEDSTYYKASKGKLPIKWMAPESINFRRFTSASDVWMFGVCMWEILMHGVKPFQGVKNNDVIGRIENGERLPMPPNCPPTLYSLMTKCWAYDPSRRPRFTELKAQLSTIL

| Structure (SMILES) | IC50 |
| --- | --- |
| CNC(=O)c1ccccc1Nc1cc(Nc2c(C)nn(C)c2C)ncc1C(F)(F)F [Example 8.10, N-methyl-2-[[5-(trifluoromethyl)-2-[(1,3,5-trimethylpyrazol-4-yl)amino]-4-pyridyl]amino]benzamide] | 13 nM |
| CCONC(=O)c1ccccc1Nc1cc(Nc2cc(C)nn2C)ncc1C(F)(F)F [Example 15.07, 2-[[2-[(2,5-dimethylpyrazol-3-yl)amino]-5-(trifluoromethyl)-4-pyridyl]amino]-N-ethoxy-benzamide] | 113 nM |
| CNC(=O)c1ccc(Cl)cc1Nc1cc(Nc2cn(C)nc2C)ncc1C(F)(F)F [Example 10.09, 4-chloro-2-[[2-[(1,3-dimethylpyrazol-4-yl)amino]-5-(trifluoromethyl)-4-pyridyl]amino]-N-methyl-benzamide] | 7 nM |
| CNC(=O)c1ccccc1Nc1cc(Nc2cn(C)nc2C)ncc1C#N [Example 1.01, 2-[[5-Cyano-2-[(1,3-dimethylpyrazol-4-yl)amino]-4-pyridyl]amino]-N-methyl-benzamide] | 65 nM |
| CNC(=O)c1ccccc1Nc1cc(Nc2cnn(CC(=O)N3CCCC3)c2)ncc1F [Example 4.01, 2-[[5-Fluoro-2-[[1-(2-oxo-2-pyrrolidin-1-yl-ethyl)pyrazol-4-yl]amino]-4-pyridyl]amino]-N-methyl-benzamide] | 1510 nM |
| CCn1ccc(Nc2cc(Nc3ccccc3C(=O)NC)c(C(F)(F)F)cn2)n1 [Example 8.06, 2-[[2-[(1-ethylpyrazol-3-yl)amino]-5-(trifluoromethyl)-4-pyridyl]amino]-N-methyl-benzamide] | 11 nM |
| CONC(=O)c1cc(F)ccc1Nc1cc(Nc2cc(C)nn2C)ncc1C(F)(F)F [Example 16.01, 2-[[2-[(2,5-dimethylpyrazol-3-yl)amino]-5-(trifluoromethyl)-4-pyridyl]amino]-5-fluoro-N-methoxy-benzamide] | 12 nM |
| CNC(=O)c1ccccc1Nc1cc(Nc2cnn(CC(=O)N3CCC(N(C)C)CC3)c2)ncc1F [Example 4.06, 2-[[2-[[1-[2-(4-dimethylamino-1-piperidyl)-2-oxo-ethyl]pyrazol-4-yl]amino]-5-fluoro-4-pyridyl]amino]-N-methyl-benzamide] | 1050 nM |
| CNC(=O)c1ccccc1Nc1cc(Nc2cn(C)nc2C(=O)NC)ncc1C(F)(F)F [Example 12.07, N,1-dimethyl-4-[[4-[[2-(methylcarbamoyl)phenyl]amino]-5-(trifluoromethyl)-2-pyridyl]amino]pyrazole-3-carboxamide] | 171 nM |
| CONC(=O)c1c(Nc2cc(Nc3cn(C)nc3C)ncc2C(F)(F)F)cccc1OC [Example 14.01, 2-[[2-[(1,3-dimethylpyrazol-4-yl)amino]-5-(trifluoromethyl)-4-pyridyl]amino]-N,6-dimethoxy-benzamide] | 4 nM |
| CNC(=O)c1ccccc1Nc1cc(Nc2cnn(CC(=O)N(C)C3CCN(C)CC3)c2)ncc1F [Example 4.02, 2-[[5-fluoro-2-[[1-[2-[methyl-(1-methyl-4-piperidyl)amino]-2-oxo-ethyl]pyrazol-4-yl]amino]-4-pyridyl]amino]-N-methyl-benzamide] | 1320 nM |
| CONC(=O)c1c(Nc2cc(Nc3cc(C)nn3C)ncc2C(F)(F)F)cccc1OC [Example 14.03, 2-[[2-[(2,5-dimethylpyrazol-3-yl)amino]-5-(trifluoromethyl)-4-pyridyl]amino]-N,6-dimethoxy-benzamide] | 6 nM |
| CNC(=O)c1ccccc1Nc1cc(Nc2cc(OC)nn2C)ncc1C#N [Example 1.02, 2-[[5-cyano-2-[(5-methoxy-2-methylpyrazol-3-yl)amino]pyridin-4-yl]amino]-N-methylbenzamide] | 102 nM |

Second part, the molecule after the results:

| IC50 | Structure (SMILES) |
| --- | --- |
| 41 nM | CONC(=O)c1ccccc1Nc1cc(Nc2cc(C)n(C)n2)ncc1Cl [Example 3.02, 2-[[5-chloro-2-[(1,5-dimethylpyrazol-3-yl)amino]-4-pyridyl]amino]-N-methoxy-benzamide] |
| 59 nM | Cc1cc(Nc2cc(Nc3cccc4c3C(=O)N(C)CC4)c(Cl)cn2)nn1C [Example 3.30, 8-[[5-chloro-2-[(1,5-dimethylpyrazol-3-yl)amino]-4-pyridyl]amino]-2-methyl-3,4-dihydroisoquinolin-1-one] |
| 29 nM | CNC(=O)c1ccccc1Nc1cc(Nc2cc(C)nn2C)ncc1Cl [Example 3.09, 2-[[5-chloro-2-[(2,5-dimethylpyrazol-3-yl)amino]-4-pyridyl]amino]-N-methyl-benzamide] |
| 294 nM | COCCN(C)C(=O)Cn1cc(Nc2cc(Nc3cccc4c3C(=O)N(C)CC4)c(F)cn2)cn1 [Example 4.24, 2-[4-[[5-fluoro-4-[(2-methyl-1-oxo-3,4-dihydroisoquinolin-8-yl)amino]-2-pyridyl]amino]pyrazol-1-yl]-N-(2-methoxyethyl)-N-methyl-acetamide] |
| 22 nM | COCc1nn(C)cc1Nc1cc(Nc2cccc3c2C(=O)N(C)CC3)c(Cl)cn1 [Example 12.04, 8-[[5-chloro-2-[[3-(methoxymethyl)-1-methyl-pyrazol-4-yl]amino]-4-pyridyl]amino]-2-methyl-3,4-dihydroisoquinolin-1-one] |
| 2 nM | Cc1n[nH]cc1Nc1cc(Nc2cccc3c2C(=O)N(C)CC3)c(Cl)cn1 [Example 12.03, 8-[[5-chloro-2-[(3-methyl-1H-pyrazol-4-yl)amino]-4-pyridyl]amino]-2-methyl-3,4-dihydroisoquinolin-1-one] |
| 9 nM | Cc1nn(C)cc1Nc1cc(Nc2cccc3c2C(=O)N(C)CC3)c(Cl)cn1 [Example 3.32, 8-[[5-chloro-2-[(1,3-dimethylpyrazol-4-yl)amino]-4-pyridyl]amino]-2-methyl-3,4-dihydroisoquinolin-1-one] |
| 118 nM | CN1CCC(n2cc(Nc3cc(Nc4cccc5c4C(=O)N(C)CC5)c(Cl)cn3)cn2)CC1 [Example 3.29, 8-[[5-chloro-2-[[1-(1-methyl-4-piperidyl)pyrazol-4-yl]amino]-4-pyridyl]amino]-2-methyl-3,4-dihydroisoquinolin-1-one] |
| 14 nM | CN1CCc2cccc(Nc3cc(Nc4cnn(C)c4)ncc3C#N)c2C1=O [Example 1.04, 4-[(2-Methyl-1-oxo-3,4-dihydroisoquinolin-8-yl)amino]-6-[(1-methylpyrazol-4-yl)amino]pyridine-3-carbonitrile] |
| 20 nM | COc1cc(Nc2cc(Nc3cccc4c3C(=O)N(C)CC4)c(C#N)cn2)n(C)n1 [Example 1.06, 6-[(5-methoxy-2-methylpyrazol-3-yl)amino]-4-[(2-methyl-1-oxo-3,4-dihydroisoquinolin-8-yl)amino]pyridine-3-carbonitrile] |
| 465 nM | CN1CCC(n2cc(Nc3cc(Nc4cccc5c4C(=O)N(C)CC5)c(F)cn3)cn2)CC1 [Example 4.16, 8[[5-fluoro-2-[[1-(1-methyl-4-piperidyl)pyrazol-4-yl]amino]-4-pyridyl]amino]-2-methyl-3,4-dihydroisoquinolin-1-one] |
| 122 nM | CNC(=O)c1c(F)cccc1Nc1cc(Nc2cn(C)nc2C)ncc1Cl [Example 3.40, 2-[[5-Chloro-2-[(1,3-dimethylpyrazol-4-yl)amino]-4-pyridyl]amino]-6-fluoro-N-methyl-benzamide] |
| 72 nM | CNC1CCN(C(=O)Cn2cc(Nc3cc(Nc4cccc5c4C(=O)N(C)CC5)c(F)cn3)cn2)C1 (centres unmarked) [Example 4.27, 8-[[5-Fluoro-2-[[1-[2-(3-methylaminopyrrolidin-1-yl)-2-oxo-ethyl]pyrazol-4-yl]amino]-4-pyridyl]amino]-2-methyl-3,4-dihydroisoquinolin-1-one] |
